Experimental data reported in US11021488B2, “Hetero-substituted cyclic lactone analogues and uses thereof” (BioVentures, LLC, priority 2015, dated 2021).

What was measured:
[1] = test system: MV4-11 cells; assay: Cytotoxic activity of SLs against MV4-11 cells (flow cytometry, YO-PRO-1 / 7-AAD); assay type: cell-based; details: MV4-11 AML cell line, cell viability at 36 hours, triplicate
Description: Following this promising data, additional SLs were studied. This included glaucolide A (FIG. 5A), glaucolide E (FIG. 5B) and calaxin (FIG. 4A). Further, an additional compound Bahia I (FIG. 11) was synthesized (described below) and evaluated. The cytotoxicity of these compounds was determined using the AML cell line, MV4-11. MV4-11 cells were treated with the compounds at varying concentrations in triplicate. Cells were then stained with YO-PRO-1 and 7-aminoactinomycin D (7-AAD). YO-PRO-1 stains apoptotic cells and 7-ADD detects cell permeability. At 36 hours cell viability was measured via flow cytometry.

[2] = Solubility in water; assay type: physicochemical
[3] = test system: normal peripheral blood mononuclear cells (PBMNCs); assay: Toxicity against normal peripheral blood mononuclear cells compared with leukemic cells; assay type: cell-based; details: PBMNCs compared with leukemic cells (FIG. 14)
Source text: The cytotoxicity of Bahia II against leukemic cells was compared with its activity against normal peripheral blood mononuclear cells (PBMNCs) (FIG. 14).

[4] = test system: AML primary samples; assay: Activity of SLs against AML primary samples
[5] = test system: MOLM-13_BLIV cells; assay: In vivo efficacy in NSG mice injected with MOLM-13_BLIV leukemia cells (luciferin imaging); details: 2.5 mg/kg in 20% DMSO i.p. every other day, imaged Day 23 and Day 31, vs vehicle
Description: To evaluate the efficacy of bahia II (BAH) in vivo, 6-8 week old NSG mice were injected i.v. via tail vein with 2.5×10^5 MOLM-13_BLIV cells. Two weeks after injection mice were injected with 3 mg of luciferin to visualize the leukemia cells using the IVIS Spectrum Imager. This was denoted time 0. Mice were randomized into 2 groups: (1) Vehicle (DMSO 20%) and (2) bahia II (BAH) (2.5 mg/kg in 20% DMSO). Mice were treated with vehicle or BAH every other day. After 3 doses, administered by i.p. injection, mice were imaged to evaluate tumor progression (Day 23). One week after the first 3 doses, the mice were treated and evaluated again in the same manner (Day 31).

Row | Compound | LD50 [1] [µM] | Average LD50 [4] [µM] | also measured
1 | C=C1C(=O)OC2C1C(OC(=O)/C(=C/CO)CO)CC1(CO1)C1CC=C(C)C21 (centres unmarked) [Bahia II] | 1.21 | 4.64 | solubility in water ([2]; mass concentration): 1750 ± 60 µg/mL; solubility in water ([2]; molar): 465 µM; toxicity against normal cells versus leukemia cells [3]: much lower toxicity against normal cells; radiance emitted from tumor cells [5]: significant reduction in radiance
2 | C=C(C)C(=O)O[C@@H]1C[C@@]2(C)OC(=CC2=O)/C(C)=C\[C@H]2OC(=O)C(=C)[C@@H]21 [Calaxin] | 0.0544 |  | 
3 | C=C1C(=O)O[C@@H]2[C@H]3C(C)=CC(=O)C3=C(C)CC[C@@H]12 [DHL, Dehydroleucodine, reference compound] | 3.19 | 7.06 | 
4 | C=C1C(=O)O[C@@H]2/C=C(\C)CC/C=C(\C)C[C@@H](OC(=O)/C(=C/CO)CO)[C@@H]12 [Eupatoriopicrin] | 1.09 | 5.65 | 
5 | Bahia I | 2.80 |  | 
6 | Glaucolide A | 1.82 |  | 
7 | Glaucolide E | 1.12 |  | 
